Laboratory results reported in US8048927B2 (Besins Healthcare Luxembourg, priority 2004, dated 2011).

Experiments:
rat liver = conditions: cited from earlier work
[1] = system: p53(−) normal human mammary epithelial cells; conditions: cited from earlier work
[2] = Group 1: PO tamoxifen 20 mg/day (10 mg b.i.d.), 3-4 weeks; cited from earlier work
[3] = Group 2 (0.5 mg/day gel): seventh day of treatment; Group 1 (oral tamoxifen): fifth day; cited from earlier work
[4] = percutaneous [^3H]-4-hydroxy tamoxifen delivery in breast cancer patients (Example 1)
Method: The patients received [^3H]-labeled drug applied directly on the affected breasts at specified intervals ranging from 12 hours to 7 days before surgery to excise diseased tissue. Breast tissue from three regions: the tumor, tissue immediately surrounding the tumor, and normal tissue, was excised and immediately frozen in liquid nitrogen. Additionally, plasma and urine samples were obtained at scheduled intervals and frozen until analysis.

benign breast disease = conditions: cited from earlier work
estrone sulphatase = molecular target: T1, estrone sulphatase (Homo sapiens, UniProt P08842); conditions: mammary cancer cell lines; cited from earlier work
T1 construct: estrone sulphatase activity in mammary cancer cell lines; endogenous in cells
T1 sequence (P08842 22-583): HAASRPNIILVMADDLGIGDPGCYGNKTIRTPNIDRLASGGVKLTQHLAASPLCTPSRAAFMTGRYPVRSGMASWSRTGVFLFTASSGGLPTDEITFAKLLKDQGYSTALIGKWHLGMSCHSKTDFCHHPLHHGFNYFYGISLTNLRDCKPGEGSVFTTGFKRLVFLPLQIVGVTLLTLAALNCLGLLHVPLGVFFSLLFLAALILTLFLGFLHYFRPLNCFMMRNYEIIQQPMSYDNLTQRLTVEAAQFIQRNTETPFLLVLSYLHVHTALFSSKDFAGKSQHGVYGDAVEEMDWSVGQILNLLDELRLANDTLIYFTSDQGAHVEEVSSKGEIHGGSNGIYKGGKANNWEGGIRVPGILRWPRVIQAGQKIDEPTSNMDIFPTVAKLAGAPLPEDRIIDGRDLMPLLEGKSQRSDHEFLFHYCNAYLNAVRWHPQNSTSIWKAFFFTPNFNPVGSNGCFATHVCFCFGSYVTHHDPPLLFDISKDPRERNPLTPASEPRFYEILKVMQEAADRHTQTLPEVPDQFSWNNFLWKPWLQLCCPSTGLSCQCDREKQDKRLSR

SMILES | rat liver carcinogenicity (rat liver) | initiation of apoptosis [1] | Normal Tissue concentration of 4-hydroxy tamoxifen, Mean ± SD [2] [pg/g] | Plasma concentration of 4-hydroxy tamoxifen, Day Pre-Surgery, Mean ± SD [2] [ng/mL] | Plasma concentration of 4-hydroxy tamoxifen, Day of Surgery, Mean ± SD [2] [ng/mL] | Tumor concentration of 4-hydroxy tamoxifen, Mean ± SD [2] [pg/g] | side effects reported by one person of the group [3] | retention in the breast ([4]; percutaneous application to the breast) | decrease of risk, adenosis (benign breast disease; in vivo) [%] | decrease of risk, cyst (benign breast disease; in vivo) [%] | decrease of risk, duct ectasia (benign breast disease; in vivo) [%] | decrease of risk, fibrocystic disease (benign breast disease; in vivo) [%] | decrease of risk, hyperplasia (benign breast disease; in vivo) [%] | decrease of risk, metaplasia (benign breast disease; in vivo) [%] | reduction of the risk of developing benign breast disease, overall (benign breast disease; in vivo) [%] | reduction of the need for breast biopsies (benign breast disease; women under 50) [%] | inhibitory effect on estrone sulphatase activity (estrone sulphatase) | time of plateau of radioactivity in blood ([4]; percutaneous application) [days]
CC/C(=C(\c1ccccc1)c1ccc(OCCN(C)C)cc1)c1ccccc1 [tamoxifen] | potent rat liver carcinogen | initiates apoptosis | 10215 ± 2151 | 2.326 ± 0.585 | 2.317 ± 1.098 | 12453 ± 3751 | hot flashes and mild vaginitis | shorter and far weaker | 41 | 34 | 28 | 33 | 40 | 49 | 28 | 41 | little or no effect | –
CC/C(=C(\c1ccccc1)c1ccc(OCCN(C)C)cc1)c1ccccc1 [[^3H]-tamoxifen] | – | – | – | – | – | – | – | – | – | – | – | – | – | – | – | – | – | 2
